Experimental data reported in US11299458B2, “Crystalline compounds” (OTSUKA AMERICA PHARMACEUTICAL, INC., priority 2015, dated 2022).
Entries after “also recorded” stand apart in the source; their conditions may differ.

Columns and labels:
Format in all cases: physicochemical
[1] = Storage stability of solid form, XRPD after storage
Experimental: Six scale-up attempts are conducted to prepare Crystalline Form C by cooling in isopropanol on approximately 50-150 mg scale (Table 11) and the solids tested by XRPD. At refrigerator temperature, precipitated solids yield Form B. Seeding with Form C after cooling in the refrigerator (no solids observed) and before placing in the freezer yield XRPD pattern of Form C with B peaks. Precipitation at freezer temperature results in solids with an XRPD pattern of Form C with A peaks. A solution placed in the freezer after cooling to room temperature with a lower concentration (7 mg/mL compared to 10 mg/mL) yields Form B. By crash cooling (ambient solution placed into dry ice/isopropanol), solids generated are a mixture of Forms B and A. The last attempt on an approximate 50-mg scale generates a mixture of Forms A and C.
An elliptically graded multilayer mirror is used to focus Cu Kα X-rays through the specimen and onto the detector. Prior to the analysis, a silicon specimen (NIST SRM 640e) is analyzed to verify the observed position of the Si 111 peak is consistent with the NIST-certified position. A specimen of the sample is sandwiched between 3-μm-thick films and analyzed in transmission geometry. A beam-stop, short antiscatter extension, and antiscatter knife edge are used to minimize the background generated by air. Soller slits for the incident and diffracted beams are used to minimize broadening from axial divergence. The diffraction pattern is collected using a scanning position-sensitive detector (X'Celerator) located 240 mm from the specimen and Data Collector software v. 2.2b. Data acquisition parameters are: Panalytical X-Pert Pro MPD PW3040 Pro, X-ray Tube: Cu (1.54059 Å), Voltage: 45 kV, Amperage: 40 mA, Scan Range: 1.00-39.99° 2θ, Step Size: 0.017° 2θ, Collection Time: 719 s, Scan Speed: 3.3°/min., Slit: DS: ½°, SS: null, Revolution Time: 1.0 s, Mode: Transmission.

[2] = Slurry in dichloromethane at ambient temperature, solvent mediated form conversion by XRPD; conditions: 16 days, no seeds, hydrochloride
Experimental: Slurry Experiments: Suspensions are prepared by adding enough solids to a given solvent so that excess solids are present. The mixture is then agitated in a sealed vial at ambient temperature or an elevated temperature. After a given period of time, the solids are isolated by vacuum filtration and analyzed.
558.9 mg of Crystalline Form A from Example 5 above is slurried in 5 mL dichloromethane. The preparation is stirred (300 RPM) in a sealed vial at ambient temperature for 16 days. White solids are isolated by vacuum filtration, rinsed with 1 mL of dichloromethane, and briefly dried under nitrogen. […] The XRPD pattern is collected with a PANalytical X'Pert PRO MPD diffractometer using an incident beam of Cu radiation produced using an Optix long, fine-focus source. An elliptically graded multilayer mirror is used to focus Cu Kα X-rays through the specimen and onto the detector. Prior to the analysis, a silicon specimen (NIST SRM 640e) is analyzed to verify the observed position of the Si 111 peak is consistent with the NIST-certified position. A specimen of the sample is sandwiched between 3-μm-thick films and analyzed in transmission geometry. A beam-stop, short antiscatter extension, and an antiscatter knife edge are used to minimize the background generated by air. Soller slits for the incident and diffracted beams are used to minimize broadening from axial divergence. […]

[3] = Accelerated stress conditions (relative humidity stress), solid form by XRPD; conditions: two weeks
Experimental: Relative Humidity Stress: Solids are stored at approximately 40° C./75% RH condition for a measured time period by placing the solids into a vial inside a sealed temperature/humidity chamber at the controlled condition. Samples are analyzed after removal from the stress environment.
Crystalline Forms A, B, and C are exposed to accelerated stress conditions for two weeks (Table 18 below). […] Crystalline Form C is metastable at this condition.
Experimental: Relative Humidity Stress
The following relative humidity jars (saturated salt solutions are used to generate desired relative humidity) are utilized: 75% RH (NaCl) and 56% RH (NaBr) (Nyqvist, H., Int. J. Pharm. Tech. &Prod. Mfr. 1983, 4 (2), 47-48).

Cl.c1ccc2cc([C@]34CNC[C@H]3C4)ccc2c1 [Crystalline Form A, (1R,5S)-1-(naphthalen-2-yl)-3-azabicyclo[3.1.0]hexane hydrochloride]
solid form by XRPD after long-term storage ([1]; long-term storage, product of Example 5): consistent with Crystalline Form A
XRPD Result after 22 days of ambient storage ([1]; solids from IPA CC (70° C. to dry ice/IPA), freezer/2 d, after 22 days of ambient storage): storage: C +
solid form after slurry in dichloromethane [2]: Product is Crystalline Form A; also recorded: does not cause a solvent mediated form conversion to Crystalline Form B
solid form by XRPD after accelerated stress ([3]; 30° C./56% RH): remain unchanged
solid form by XRPD after accelerated stress ([3]; 40° C./75% RH, hydrochloride): remain unchanged
